According to ChEMBL document CHEMBL5291721, “A preclinical secondary pharmacology resource illuminates target-adverse drug reaction associations of marketed drugs” (Nat Commun, 2023):

Assays:
Mu-type opioid receptor = Mu-type opioid receptor (Homo sapiens, UniProt P35372); assay: biochemical; type: functional
[1] = biological target: Beta-2 adrenergic receptor (Homo sapiens, UniProt P07550)
[2] = biological target: 5-hydroxytryptamine receptor 2A (Homo sapiens, UniProt P28223); type: functional, cell-based
5-hydroxytryptamine receptor 2A, sequence (P28223 whole entry): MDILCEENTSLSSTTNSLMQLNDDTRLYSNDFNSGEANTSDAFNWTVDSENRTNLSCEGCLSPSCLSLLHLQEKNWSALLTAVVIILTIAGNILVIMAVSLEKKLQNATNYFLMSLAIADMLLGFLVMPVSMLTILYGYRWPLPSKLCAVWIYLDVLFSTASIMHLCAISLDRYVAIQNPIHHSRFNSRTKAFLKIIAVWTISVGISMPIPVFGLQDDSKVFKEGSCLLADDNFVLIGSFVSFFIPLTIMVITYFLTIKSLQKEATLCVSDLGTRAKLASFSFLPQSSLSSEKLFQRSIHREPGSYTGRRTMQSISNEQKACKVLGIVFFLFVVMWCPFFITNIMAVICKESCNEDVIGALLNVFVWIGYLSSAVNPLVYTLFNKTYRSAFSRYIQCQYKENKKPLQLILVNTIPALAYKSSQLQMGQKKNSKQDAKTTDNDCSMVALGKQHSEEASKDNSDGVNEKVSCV

[3] = biological target: T1, Alpha-2C adrenergic receptor (Homo sapiens, UniProt P18825); type: functional
T1 sequence (P18825 whole entry): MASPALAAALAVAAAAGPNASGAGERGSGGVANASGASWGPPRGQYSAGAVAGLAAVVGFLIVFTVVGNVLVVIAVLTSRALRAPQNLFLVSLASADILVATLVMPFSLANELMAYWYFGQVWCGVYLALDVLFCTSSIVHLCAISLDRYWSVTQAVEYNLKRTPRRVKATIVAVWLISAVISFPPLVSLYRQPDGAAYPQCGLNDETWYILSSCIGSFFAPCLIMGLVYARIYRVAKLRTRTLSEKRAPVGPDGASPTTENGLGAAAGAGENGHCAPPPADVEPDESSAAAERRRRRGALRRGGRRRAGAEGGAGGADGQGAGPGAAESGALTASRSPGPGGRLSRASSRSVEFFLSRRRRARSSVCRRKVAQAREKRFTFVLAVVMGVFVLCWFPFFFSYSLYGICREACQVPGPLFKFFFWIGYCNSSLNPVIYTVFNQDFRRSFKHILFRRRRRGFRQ

D(3) dopamine receptor [4] = biological target: T2, D(3) dopamine receptor (Homo sapiens, UniProt P35462)
T2 sequence (P35462 whole entry): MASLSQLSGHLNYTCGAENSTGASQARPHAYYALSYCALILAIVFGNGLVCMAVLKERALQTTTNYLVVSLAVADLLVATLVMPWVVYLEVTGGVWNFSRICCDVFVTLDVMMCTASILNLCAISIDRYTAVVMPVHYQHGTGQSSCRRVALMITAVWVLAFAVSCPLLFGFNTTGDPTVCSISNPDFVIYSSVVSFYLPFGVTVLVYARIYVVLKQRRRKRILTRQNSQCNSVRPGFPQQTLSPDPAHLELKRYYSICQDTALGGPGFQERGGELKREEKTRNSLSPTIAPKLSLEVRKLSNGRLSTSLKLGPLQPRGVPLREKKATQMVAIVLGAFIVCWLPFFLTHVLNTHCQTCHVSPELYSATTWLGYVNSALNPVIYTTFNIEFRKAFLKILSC

[5] = biological target: Kappa-type opioid receptor (Homo sapiens, UniProt P41145)
Kappa-type opioid receptor, sequence (P41145 whole entry): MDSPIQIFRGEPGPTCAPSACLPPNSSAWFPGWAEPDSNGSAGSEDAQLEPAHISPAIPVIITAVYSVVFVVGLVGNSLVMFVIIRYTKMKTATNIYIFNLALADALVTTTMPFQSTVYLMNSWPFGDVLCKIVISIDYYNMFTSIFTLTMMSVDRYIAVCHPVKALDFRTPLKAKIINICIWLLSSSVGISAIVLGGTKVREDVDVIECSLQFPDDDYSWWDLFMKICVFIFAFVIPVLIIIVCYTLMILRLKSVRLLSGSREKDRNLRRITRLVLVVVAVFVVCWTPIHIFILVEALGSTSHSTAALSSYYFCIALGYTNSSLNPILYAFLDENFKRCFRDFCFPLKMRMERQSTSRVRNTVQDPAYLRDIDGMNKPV

Histamine H3 receptor = Histamine H3 receptor (Homo sapiens, UniProt Q9Y5N1)
Histamine H3 receptor, sequence (Q9Y5N1 whole entry): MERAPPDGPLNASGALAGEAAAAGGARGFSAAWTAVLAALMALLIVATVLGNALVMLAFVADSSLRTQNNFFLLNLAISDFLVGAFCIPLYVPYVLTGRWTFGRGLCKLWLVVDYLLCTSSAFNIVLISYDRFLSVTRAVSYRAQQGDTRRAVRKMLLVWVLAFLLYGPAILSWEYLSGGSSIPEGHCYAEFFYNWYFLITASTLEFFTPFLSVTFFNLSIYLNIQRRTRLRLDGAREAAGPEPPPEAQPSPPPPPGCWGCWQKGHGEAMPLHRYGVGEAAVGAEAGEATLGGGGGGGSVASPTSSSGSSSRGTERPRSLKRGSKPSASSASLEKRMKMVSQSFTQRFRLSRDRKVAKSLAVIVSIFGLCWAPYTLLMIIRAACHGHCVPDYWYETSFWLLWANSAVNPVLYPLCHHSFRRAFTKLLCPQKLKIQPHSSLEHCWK

Estrogen receptor = biological target: T3, Estrogen receptor (Homo sapiens, UniProt P03372)
T3 sequence (P03372 whole entry): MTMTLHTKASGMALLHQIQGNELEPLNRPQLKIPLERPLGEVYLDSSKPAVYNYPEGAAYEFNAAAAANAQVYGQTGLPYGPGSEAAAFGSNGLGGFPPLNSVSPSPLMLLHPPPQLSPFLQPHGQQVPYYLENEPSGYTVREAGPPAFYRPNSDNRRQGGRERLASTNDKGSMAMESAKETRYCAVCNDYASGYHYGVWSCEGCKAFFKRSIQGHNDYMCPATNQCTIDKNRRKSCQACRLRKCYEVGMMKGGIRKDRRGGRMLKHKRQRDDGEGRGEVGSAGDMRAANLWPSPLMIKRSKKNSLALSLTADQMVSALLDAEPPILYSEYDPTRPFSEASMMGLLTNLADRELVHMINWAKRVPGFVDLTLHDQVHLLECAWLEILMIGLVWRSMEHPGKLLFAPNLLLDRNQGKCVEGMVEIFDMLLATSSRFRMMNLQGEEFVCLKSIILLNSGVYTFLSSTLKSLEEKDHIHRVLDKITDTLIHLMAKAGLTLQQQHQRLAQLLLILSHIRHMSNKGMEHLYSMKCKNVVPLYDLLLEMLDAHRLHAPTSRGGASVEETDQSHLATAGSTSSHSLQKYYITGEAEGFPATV

D(3) dopamine receptor [6] = biological target: T2, D(3) dopamine receptor; remark: listed apart in the source
[7] = biological target: T4, Amine oxidase [flavin-containing] A (Homo sapiens, UniProt P21397); type: functional
T4 sequence (P21397 whole entry): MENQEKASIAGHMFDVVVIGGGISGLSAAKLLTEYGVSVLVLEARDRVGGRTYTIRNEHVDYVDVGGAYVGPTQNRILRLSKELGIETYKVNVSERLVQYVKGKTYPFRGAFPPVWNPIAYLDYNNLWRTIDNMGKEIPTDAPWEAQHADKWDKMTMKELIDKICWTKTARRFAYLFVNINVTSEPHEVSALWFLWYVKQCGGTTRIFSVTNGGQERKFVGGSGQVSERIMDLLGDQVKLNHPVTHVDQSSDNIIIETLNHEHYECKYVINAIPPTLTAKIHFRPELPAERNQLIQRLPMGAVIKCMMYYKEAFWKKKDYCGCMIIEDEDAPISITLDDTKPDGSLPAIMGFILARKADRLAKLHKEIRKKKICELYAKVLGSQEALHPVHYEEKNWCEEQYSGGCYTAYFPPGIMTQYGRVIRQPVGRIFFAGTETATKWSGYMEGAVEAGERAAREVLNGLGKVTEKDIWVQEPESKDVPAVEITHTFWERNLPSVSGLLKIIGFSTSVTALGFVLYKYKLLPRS

[8] = biological target: T5, 5-hydroxytryptamine receptor 1A (Homo sapiens, UniProt P08908)
T5 sequence (P08908 whole entry): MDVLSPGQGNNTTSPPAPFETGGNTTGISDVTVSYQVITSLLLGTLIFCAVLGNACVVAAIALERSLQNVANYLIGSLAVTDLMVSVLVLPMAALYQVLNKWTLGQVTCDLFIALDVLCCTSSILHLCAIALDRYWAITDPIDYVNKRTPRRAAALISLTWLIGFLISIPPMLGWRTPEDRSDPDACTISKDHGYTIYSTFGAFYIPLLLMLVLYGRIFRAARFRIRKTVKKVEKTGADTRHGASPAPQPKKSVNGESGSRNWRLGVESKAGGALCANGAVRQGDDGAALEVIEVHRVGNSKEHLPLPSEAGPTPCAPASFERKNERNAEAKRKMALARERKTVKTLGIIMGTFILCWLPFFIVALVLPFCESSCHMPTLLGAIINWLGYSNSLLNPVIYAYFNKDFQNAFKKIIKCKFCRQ

[9] = biological target: Vascular endothelial growth factor receptor 2 (Homo sapiens, UniProt P35968); type: functional
Vascular endothelial growth factor receptor 2, sequence (P35968 whole entry): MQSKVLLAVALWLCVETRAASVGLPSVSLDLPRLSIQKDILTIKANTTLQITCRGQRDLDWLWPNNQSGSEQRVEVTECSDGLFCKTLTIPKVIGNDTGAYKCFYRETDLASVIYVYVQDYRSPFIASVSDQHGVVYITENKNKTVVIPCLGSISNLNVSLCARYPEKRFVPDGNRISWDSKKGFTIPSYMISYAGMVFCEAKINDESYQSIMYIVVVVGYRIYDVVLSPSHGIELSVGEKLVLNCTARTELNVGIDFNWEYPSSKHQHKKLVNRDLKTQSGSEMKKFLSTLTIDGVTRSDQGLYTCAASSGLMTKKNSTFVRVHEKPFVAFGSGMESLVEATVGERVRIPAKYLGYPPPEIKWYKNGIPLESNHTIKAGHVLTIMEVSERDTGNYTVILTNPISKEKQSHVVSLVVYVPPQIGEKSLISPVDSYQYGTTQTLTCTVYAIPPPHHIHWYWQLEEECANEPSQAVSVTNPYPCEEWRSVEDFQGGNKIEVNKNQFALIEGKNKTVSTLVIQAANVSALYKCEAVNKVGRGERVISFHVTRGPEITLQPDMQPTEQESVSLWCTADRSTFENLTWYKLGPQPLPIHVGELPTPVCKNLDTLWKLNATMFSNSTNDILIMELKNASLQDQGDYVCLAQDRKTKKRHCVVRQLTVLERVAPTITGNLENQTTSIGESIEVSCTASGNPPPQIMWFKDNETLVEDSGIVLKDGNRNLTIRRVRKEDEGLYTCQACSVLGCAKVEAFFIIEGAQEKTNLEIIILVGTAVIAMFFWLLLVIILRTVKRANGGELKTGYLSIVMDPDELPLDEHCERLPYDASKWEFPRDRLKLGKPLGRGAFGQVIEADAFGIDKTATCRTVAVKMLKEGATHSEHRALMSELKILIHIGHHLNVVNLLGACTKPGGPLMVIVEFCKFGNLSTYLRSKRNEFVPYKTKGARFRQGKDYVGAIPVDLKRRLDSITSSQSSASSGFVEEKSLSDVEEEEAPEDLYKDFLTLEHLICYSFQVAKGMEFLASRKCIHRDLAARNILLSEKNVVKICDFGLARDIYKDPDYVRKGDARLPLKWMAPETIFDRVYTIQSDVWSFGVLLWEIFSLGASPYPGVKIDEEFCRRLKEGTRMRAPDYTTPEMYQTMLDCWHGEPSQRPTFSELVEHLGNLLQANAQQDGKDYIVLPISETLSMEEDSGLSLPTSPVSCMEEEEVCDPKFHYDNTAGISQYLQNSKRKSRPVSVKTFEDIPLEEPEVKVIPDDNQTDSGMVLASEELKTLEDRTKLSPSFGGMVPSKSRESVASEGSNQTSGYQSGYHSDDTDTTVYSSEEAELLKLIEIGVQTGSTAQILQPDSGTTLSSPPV

[10] = biological target: T6, Alpha-2A adrenergic receptor (Homo sapiens, UniProt P08913)
T6 sequence (P08913 whole entry): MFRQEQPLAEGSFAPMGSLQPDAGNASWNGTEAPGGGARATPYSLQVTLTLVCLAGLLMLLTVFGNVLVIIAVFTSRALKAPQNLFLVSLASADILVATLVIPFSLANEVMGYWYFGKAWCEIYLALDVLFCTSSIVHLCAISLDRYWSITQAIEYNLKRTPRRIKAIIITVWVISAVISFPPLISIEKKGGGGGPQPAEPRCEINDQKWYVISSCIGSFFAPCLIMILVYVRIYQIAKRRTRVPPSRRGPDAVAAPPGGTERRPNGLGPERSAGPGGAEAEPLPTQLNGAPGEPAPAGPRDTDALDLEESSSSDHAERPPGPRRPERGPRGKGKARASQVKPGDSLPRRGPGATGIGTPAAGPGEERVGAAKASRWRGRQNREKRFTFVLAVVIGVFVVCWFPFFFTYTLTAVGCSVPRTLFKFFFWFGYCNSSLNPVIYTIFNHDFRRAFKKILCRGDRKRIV

Measured: AC50
Note: assay procedure not described here.

Mu-type opioid receptor, sequence (P35372 whole entry): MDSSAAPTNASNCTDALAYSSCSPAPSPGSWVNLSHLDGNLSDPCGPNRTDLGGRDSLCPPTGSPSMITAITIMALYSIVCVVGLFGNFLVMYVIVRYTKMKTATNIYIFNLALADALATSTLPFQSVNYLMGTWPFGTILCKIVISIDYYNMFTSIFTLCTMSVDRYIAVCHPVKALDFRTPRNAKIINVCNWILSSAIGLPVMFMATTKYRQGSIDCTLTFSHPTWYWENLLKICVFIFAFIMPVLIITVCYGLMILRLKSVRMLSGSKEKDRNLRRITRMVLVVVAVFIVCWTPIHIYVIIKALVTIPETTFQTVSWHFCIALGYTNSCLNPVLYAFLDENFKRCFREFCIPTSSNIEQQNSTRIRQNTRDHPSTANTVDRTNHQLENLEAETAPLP
Beta-2 adrenergic receptor, sequence (P07550 whole entry): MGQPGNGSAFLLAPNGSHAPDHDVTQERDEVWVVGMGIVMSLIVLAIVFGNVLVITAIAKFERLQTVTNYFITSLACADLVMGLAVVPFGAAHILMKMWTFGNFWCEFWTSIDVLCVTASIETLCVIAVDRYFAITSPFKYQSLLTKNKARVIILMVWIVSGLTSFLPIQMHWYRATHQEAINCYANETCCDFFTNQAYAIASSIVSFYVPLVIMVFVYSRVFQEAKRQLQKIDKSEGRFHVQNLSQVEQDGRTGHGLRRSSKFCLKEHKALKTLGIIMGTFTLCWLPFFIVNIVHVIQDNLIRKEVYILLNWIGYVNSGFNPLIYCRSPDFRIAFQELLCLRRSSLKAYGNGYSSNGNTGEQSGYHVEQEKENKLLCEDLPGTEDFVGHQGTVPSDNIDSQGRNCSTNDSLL

CCN(CC)C(=O)C1(c2ccccc2)CC1CN (stereo not drawn)
> 30 µM: Mu-type opioid receptor | [1] | [2] | [3] | D(3) dopamine receptor [4] | [5]

CN(C)C(=O)Oc1cccc([N+](C)(C)C)c1 [NEOSTIGMINE]
> 30 µM: Histamine H3 receptor | Estrogen receptor | D(3) dopamine receptor [6] | [7] | [8] | [9] | [10]
